Reference: USRE46630E1, “Substituted 4-pyridones and their use as inhibitors of neutrophil elastase activity” (Boehringer Ingelheim International GmbH, priority 2012, dated 2017)
pIC50: −log10 of the molar value.

These molecules were tested against T1, Human neutrophil elastase (Homo sapiens, UniProt P08246) (assay: Human Neutrophil Elastase Assay). Conditions: Neutrophil Elastase assay; substrate MeOSuc-Ala-Ala-Pro-Val-AMC 250 μM; 15 min preincubation, 60 min incubation at room temperature; pH 7.5.
T1 construct: purchased Calbiochem 324681
T1 sequence (P08246 30-267): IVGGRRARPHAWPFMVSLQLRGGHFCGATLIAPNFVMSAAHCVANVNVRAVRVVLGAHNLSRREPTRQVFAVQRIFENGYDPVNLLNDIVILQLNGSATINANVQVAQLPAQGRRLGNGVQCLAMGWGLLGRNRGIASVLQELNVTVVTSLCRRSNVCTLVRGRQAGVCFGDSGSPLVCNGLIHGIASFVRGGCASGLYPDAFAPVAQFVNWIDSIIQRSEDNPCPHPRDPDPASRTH
Type: biochemical
Procedure, shortened: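 Run in 100 mM Tris, 500 mM NaCl, pH 7.5 with 0.01% BSA, with compounds prediluted in DMSO then buffer (5% DMSO final). Fluorescence was read at 380 nm excitation/460 nm emission after enzyme inactivation. Values were normalised to inactivated-enzyme (0%) and uninhibited-enzyme (100%) controls.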

pIC50 | SMILES
8.72 | Cc1noc(CNC(=O)c2cn(C(C)c3ccc(C#N)cc3)c(C)c(-c3cccc(C(F)F)c3)c2=O)n1 (centres unmarked) [Example 8.2]
8.38 | CNC(=O)c1cn(C(C)c2ccc(C#N)cn2)c(C)c(-c2cccc(C(F)F)c2)c1=O (single isomer, unassigned) [Example 16A]
7.74 | Cc1c(-c2ccnc(C(F)(F)F)c2)c(=O)c(C(=O)NCCCN(C)C)cn1C(C)c1ccc(C#N)cc1 (centres unmarked) [Example 9.11]
7.84 | Cc1c(-c2ccnc(C(F)(F)F)c2)c(=O)c(C(=O)NCC2CCC2)cn1C(C)c1ccc(C#N)cc1 (centres unmarked) [Example 9.23]
7.71 | Cc1c(-c2ccnc(C(F)(F)F)c2)c(=O)c(C(=O)NCC2CCCO2)cn1C(C)c1ccc(C#N)cc1 (centres unmarked) [Example 9.32]
8.49 | Cc1c(-c2ccnc(C(F)(F)F)c2)c(=O)c(C(=O)NCCCS(C)(=O)=O)cn1C(C)c1ccc(C#N)cc1 (centres unmarked) [Example 9.6]
7.65 | Cc1c(-c2ccnc(C(F)(F)F)c2)c(=O)c(C(=O)NC2CCCCC2O)cn1C(C)c1ccc(C#N)cc1 (centres unmarked) [Example 9.29]
8.89 | Cc1c(-c2cccc(C(F)F)c2)c(=O)c(C(=O)NCCCS(C)(=O)=O)cn1C(C)c1ccc(C#N)cc1 (centres unmarked) [Example 8.3]
8.49 | Cc1c(-c2cccc(C(F)F)c2)c(=O)c(C(=O)NCCCCO)cn1C(C)c1ccc(C#N)cc1 (centres unmarked) [Example 8.13]
> 9.00 | Cc1c(-c2cccc(C(F)(F)F)c2)c(=O)c(C(=O)NCc2ccc(S(C)(=O)=O)cc2)cn1C(C)c1ccc(C#N)cn1 (centres unmarked) [Example 47.13]
8.92 | CNC(=O)c1cn(C(C)c2ccc(C#N)cc2)c(C)c(-c2cccc(C(F)F)c2)c1=O (single isomer, unassigned) [Example 8A]
8.27 | CCOCCNC(=O)c1cn(C(C)c2ccc(C#N)cc2)c(C)c(-c2ccnc(C(F)(F)F)c2)c1=O (centres unmarked) [Example 9.58]
8.12 | Cc1c(-c2ccnc(C(F)(F)F)c2)c(=O)c(C(=O)NCCO)cn1C(C)c1ccc(C#N)cc1 (centres unmarked) [Example 9.9]
8.77 | Cc1c(-c2cccc(C(F)F)c2)c(=O)c(C(=O)NC2CNC(=O)C2)cn1C(C)c1ccc(C#N)cc1 (centres unmarked) [Example 8.7]
6.43 | CNC(=O)c1cn(C(C)c2ccc(C#N)cn2)c(C)c(-c2cccc(C(F)F)c2)c1=O (single isomer, unassigned) [Example 16B]
8.39 | Cc1c(-c2cccc(C(F)F)c2)c(=O)c(C(=O)NCCCN(C)C)cn1C(C)c1ccc(C#N)cc1 (centres unmarked) [Example 8.1]
5.82 | CNC(=O)c1cn(C(C)c2ccc(C#N)cc2)c(C)c(-c2ccnc(C(F)(F)F)c2)c1=O (single isomer, unassigned) [Example 9B]
8.12 | COCCCNC(=O)c1cn(C(C)c2ccc(C#N)cc2)c(C)c(-c2ccnc(C(F)(F)F)c2)c1=O (centres unmarked) [Example 9.59]
8.62 | Cc1c(-c2cccc(C(F)F)c2)c(=O)c(C(=O)NCc2cccnc2)cn1C(C)c1ccc(C#N)cc1 (centres unmarked) [Example 8.18]

The remaining lines, values behind:

SMILES | pIC50
COc1ccc(CNC(=O)c2cn(Cc3ccc(C#N)cc3)c(C)c(-c3cccc(C(F)(F)F)c3)c2=O)cn1 [Example 1.56] | 8.34
CNC(=O)c1cn(Cc2ccc(C#N)cc2F)c(C)c(-c2cccc(C(F)(F)F)c2)c1=O [Example 3.6] | 7.69
CCS(=O)(=O)c1cc(C#N)ccc1Cn1cc(C(=O)NC)c(=O)c(-c2cccc(C(F)(F)F)c2)c1C [Example 26] | 7.97
CNC(=O)c1cn(Cc2ccc(C#N)cn2)c(C)c(-c2ccnc(C(F)(F)F)c2)c1=O [Example 44, 1-(5-Cyano-pyridin-2-ylmethyl)-2-methyl-4-oxo-2′-trifluoromethyl-1,4-dihydro-[3,4′]bipyridinyl-5-carboxylic acid methylamide] | 7.02
Cc1c(-c2cccc(C(F)(F)F)c2)c(=O)c(C(=O)NC2CCOCC2)cn1Cc1ccc(C#N)cc1 [Example 1.29] | 7.50
CNC(=O)c1cn(Cc2ccc(C#N)cc2F)c(C)c(-c2cccc(C(F)F)c2)c1=O [Example 32] | 7.93
Cc1c(-c2cccc(C(F)(F)F)c2)c(=O)c(C(=O)NCC2CCN(C(=O)CN(C)C)CC2)cn1Cc1ccc(C#N)cc1 [Example 1.7] | 7.80
Cc1c(-c2cccc(C(F)(F)F)c2)c(=O)c(C(=O)NCc2ccc(S(C)(=O)=O)cc2)cn1Cc1ccc(C#N)c(F)c1 [Example 2.9] | > 9.00
Cc1c(-c2cccc(C(F)(F)F)c2)c(=O)c(C(=O)NCCCN(C)C)cn1Cc1ccc(C#N)cc1 [Example 1.4] | 7.56
CCNC(=O)c1cn(C(C)c2ccc(C#N)cc2)c(C)c(-c2ccnc(C(F)F)c2)c1=O (centres unmarked) [Example 38, 1-[1-(4-Cyano-phenyl)-ethyl]-2′-difluoromethyl-2-methyl-4-oxo-1,4-dihydro-[3,4′]bipyridinyl-5-carboxylic acid ethylamide] | 7.96
Cc1c(-c2cccc(C(F)(F)F)c2)c(=O)c(C(=O)NCc2cccnc2)cn1Cc1ccc(C#N)cc1 [Example 1.46] | 8.23
Cc1c(-c2cccc(C(F)F)c2)c(=O)c(C(=O)NCc2ccc(S(C)(=O)=O)cc2)cn1Cc1ccc(C#N)cc1F [Example 41, 1-(4-Cyano-2-fluoro-benzyl)-5-(3-difluoromethyl-phenyl)-6-methyl-4-oxo-1,4-dihydro-pyridine-3-carboxylic acid 4-methanesulfonyl-benzylamide] | > 9.00
Cc1c(-c2cccc(C(F)(F)F)c2)c(=O)c(C(=O)NCCS(C)(=O)=O)cn1C(C)c1ccc(C#N)cc1 (centres unmarked) [Example 7.6] | 8.92
Cc1cc(-c2c(C)n(Cc3ccc(C#N)cc3)cc(C(=O)NCc3ccc(S(C)(=O)=O)cc3)c2=O)ccn1 [Example 6.3] | 8.04
CCC(c1ccc(C#N)cc1)n1cc(C(=O)NC)c(=O)c(-c2ccnc(C(F)(F)F)c2)c1C (centres unmarked) [Example 36, 1-[1-(4-Cyano-phenyl)-propyl]-2-methyl-4-oxo-2′-trifluoromethyl-1,4-dihydro-[3,4′]bipyridinyl-5-carboxylic acid methylamide] | 7.74
Cc1c(-c2cccc(C(F)(F)F)c2)c(=O)c(C(=O)NCCO)cn1C(C)c1ccc(C#N)cc1 (centres unmarked) [Example 7.9] | 8.64

SMILES | pIC50
Cc1c(-c2cccc(C(F)(F)F)c2)c(=O)c(C(=O)NCCc2ccccn2)cn1Cc1ccc(C#N)cc1 [Example 1.43] | 8.05
Cc1c(-c2cccc(C(F)(F)F)c2)c(=O)c(C(=O)NCCCO)cn1Cc1ccc(C#N)cc1 [Example 1.9] | 8.08
Cc1c(-c2cccc(C(F)F)c2)c(=O)c(C(=O)NCc2ccc(S(C)(=O)=O)cc2)cn1Cc1ccc(C#N)cc1 [Example 6.10] | > 9.00
Cc1c(-c2cccc(C(F)(F)F)c2)c(=O)c(C(=O)N[C@@H]2CCNC2=O)cn1Cc1ccc(C#N)cc1 [Example 1.59] | 7.98
Cc1c(-c2cccc(C(F)(F)F)c2)c(=O)c(C(=O)NC2COC2)cn1C(C)c1ccc(C#N)cc1 (centres unmarked) [Example 7.19] | 8.39
Cc1c(-c2cccc(C(F)(F)F)c2)c(=O)c(C(=O)NCc2ccc(S(C)(=O)=O)cn2)cn1Cc1ccc(C#N)c(F)c1 [Example 4.5] | 9.00
Cc1c(-c2cccc(C(F)(F)F)c2)c(=O)c(C(=O)NCc2ccc(S(C)(=O)=O)cc2)cn1Cc1cccc(C#N)c1 [Example 2.10] | 7.08
Cc1c(-c2cccc(C(F)(F)F)c2)c(=O)c(C(=O)NCC#N)cn1C(C)c1ccc(C#N)cc1 (centres unmarked) [Example 7.18] | > 9.00
CNC(=O)c1cn(Cc2ccc(C#N)c(F)c2)c(C)c(-c2ccnc(C(F)(F)F)c2)c1=O [Example 43, 1-(4-Cyano-3-fluoro-benzyl)-2-methyl-4-oxo-2′-trifluoromethyl-1,4-dihydro-[3,4′]bipyridinyl-5-carboxylic acid methylamide] | 7.32
Cc1c(-c2cccc(C(F)(F)F)c2)c(=O)c(C(=O)NC2CCOC2)cn1Cc1ccc(C#N)cc1 (centres unmarked) [Example 1.37] | 7.02
Cc1cccc(-c2c(C)n(Cc3ccc(C#N)cc3)cc(C(=O)NCc3ccc(S(C)(=O)=O)cc3)c2=O)c1 [Example 6.2] | 8.82
Cc1c(-c2cccc(C(F)(F)F)c2)c(=O)c(C(=O)NCC2COCCO2)cn1Cc1ccc(C#N)cc1 (centres unmarked) [Example 1.35] | 7.50
Cc1c(-c2cccc(C(F)(F)F)c2)c(=O)c(C(=O)NCc2cnn(C)c2)cn1Cc1ccc(C#N)cc1 [Example 1.26] | 7.88
Cc1c(-c2cccc(C(F)(F)F)c2)c(=O)c(C(=O)NCc2ccccn2)cn1Cc1ccc(C#N)cc1 [Example 1.48] | 8.39
CNC(=O)c1cn(Cc2ccc(C#N)cc2OC)c(C)c(-c2cccc(C(F)(F)F)c2)c1=O [Example 3.7] | 7.58
